Measured values from PMC11227574, “Synthesis, biological evaluation, molecular docking, and MD simulation of novel 2,4-disubstituted quinazoline derivatives as selective butyrylcholinesterase inhibitors and antioxidant agents” (Scientific Reports, 2024).

Columns and labels:
[1] = target: T1, eelAChE (acetylcholinesterase from the electric eel) (Electrophorus electricus, UniProt O42275); experiment: biochemical; details: for IC50: mean ± SD of three independent experiments; for inhibition at 50 µM: read-out: eelAChE: % inhibition
T1 construct: purchased Sigma Aldrich

[2] = target: eqBuChE (butyrylcholinesterase from equine serum) (Equus caballus, UniProt P81908); experiment: biochemical; assay type: biochemical; details: for Selectivity index to BuChE (SI): IC50 for AChE/ IC50 for BuChE; for IC50: mean ± SD of three independent experiments; for inhibition at 50 µM: read-out: eqBuChE: % inhibition
DPPH antioxidant assay = details: DPPH 110 µM, 30 min incubation, 517 nm; read-out: DPPH scavenging EC50
From the text: The DPPH method presents several advantages, such as low cost, ease of performing experiments, high reproducibility, applicability at room temperature, and automation possibilities. In contrast to other traditional antioxidant assays that require additional treatments of sample and reagents, such as high temperatures and/or oxygen supply, the DPPH method requires mild experimental conditions[35],[36]. These features have established it as a convenient and effective option for researchers in the evaluation of antioxidant properties. In this study, the antioxidant activities of the synthesized compounds 6a-j were assessed using the DPPH assay, and the obtained results are represented as EC50 values in Table 2. In this assay, quercetin was used as positive control to compare the antioxidant capacity of the tested compounds.
The antioxidant activity of the synthesized compounds were determined based on the DPPH method. 2,2-Diphenyl-1-picrylhydrazyl (DPPH) and quercetin were obtained from Sigma Aldrich company. In this assay, quercetin was used as the control compound. Initially, stock solutions of the tested compounds with concentration of 40 mM were prepared in dimethyl sulfoxide (DMSO) solvent, and then the necessary dilutions were made in methanol to prepare the required concentrations ranging from 25 to 400 µM. This test was conducted in 96-well plates. Each well contained 180 μL of DPPH (110 μM) and 20 μL of different concentrations of the tested compounds, which were incubated for 30 min under dark condition. Then, the absorbance changes were measured at a wavelength of 517 nm using the Synergy HTX Multi-Mode Reader-BioTek. EC50 values for the compounds whose free radical trapping percentage was more than 50% at a concentration of 400 µM were obtained using CurveExpert software. Experiments were repeated three times for each concentration and the results were reported as the mean (m) ± standard deviation (SD).

eqBuChE = eqBuChE (Equus caballus, UniProt P81908); experiment: Kinetic study of eqBuChE inhibition (Lineweaver-Burk plot); assay type: biochemical, equine; details: inhibitor 0.5, 1, 5, 10, and 20 µM
Procedure: (§1) Kinetic study was performed to investigate the inhibition mechanism of eelAChE and eqBuChE using graphical analysis of the reciprocal Lineweaver–Burk plot. […] The kinetic studies were performed in the absence (control) and presence of different concentrations of compound 6h (5, 10, 20, 40, and 80 μM) for eelAChE and different concentrations of compound 6f (0.5, 1, 5, 10, and 20 μM) for eqBuChE. The control wells contained no concentration of 6h and 6f as inhibitors.
(§2) The initial velocity (V) of the substrates hydrolysis was measured at different concentrations of acetylthiocholine iodide (ATCI) or butyrylthiocholine iodide (BTCI) (1.7–20 mM), in the absence (control) and presence of different concentrations of the compound 6h (5, 10, 20, 40, and 80 μM) for AChE and different concentrations of compound 6f (0.5, 1, 5, 10, and 20 μM) for BuChE. Then, the double reciprocal plot of 1/V versus 1/S was drawn to determine the inhibition type of AChE and BuChE. Data analysis was performed using Microsoft Office Excel 2016.

eelAChE = target: T2, eelAChE (Electrophorus electricus, UniProt O42275); experiment: Kinetic study of eelAChE inhibition (Lineweaver-Burk plot); assay type: biochemical, electric eel; details: inhibitor 5, 10, 20, 40, and 80 µM
T2 construct: purchased Sigma Aldrich
Procedure: as §1, §2

T1 sequence (O42275 24-633): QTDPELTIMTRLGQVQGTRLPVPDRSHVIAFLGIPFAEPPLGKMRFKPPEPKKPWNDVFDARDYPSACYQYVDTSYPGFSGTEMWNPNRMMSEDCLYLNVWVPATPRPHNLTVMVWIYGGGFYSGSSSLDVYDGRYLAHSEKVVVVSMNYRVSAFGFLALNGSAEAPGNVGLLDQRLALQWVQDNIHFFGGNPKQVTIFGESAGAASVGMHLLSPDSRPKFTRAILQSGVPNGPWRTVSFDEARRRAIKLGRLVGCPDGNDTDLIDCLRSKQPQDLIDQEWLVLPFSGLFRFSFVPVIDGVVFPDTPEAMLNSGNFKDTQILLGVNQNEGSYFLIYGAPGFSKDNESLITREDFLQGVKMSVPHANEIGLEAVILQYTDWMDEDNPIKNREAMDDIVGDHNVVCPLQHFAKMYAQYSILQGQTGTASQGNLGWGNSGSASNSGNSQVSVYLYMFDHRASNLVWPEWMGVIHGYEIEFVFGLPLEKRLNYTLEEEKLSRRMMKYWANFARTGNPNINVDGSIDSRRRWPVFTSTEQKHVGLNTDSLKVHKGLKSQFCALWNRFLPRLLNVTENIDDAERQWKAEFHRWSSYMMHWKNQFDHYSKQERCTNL
Chain of eqBuChE (butyrylcholinesterase from equine serum) (P81908 whole entry): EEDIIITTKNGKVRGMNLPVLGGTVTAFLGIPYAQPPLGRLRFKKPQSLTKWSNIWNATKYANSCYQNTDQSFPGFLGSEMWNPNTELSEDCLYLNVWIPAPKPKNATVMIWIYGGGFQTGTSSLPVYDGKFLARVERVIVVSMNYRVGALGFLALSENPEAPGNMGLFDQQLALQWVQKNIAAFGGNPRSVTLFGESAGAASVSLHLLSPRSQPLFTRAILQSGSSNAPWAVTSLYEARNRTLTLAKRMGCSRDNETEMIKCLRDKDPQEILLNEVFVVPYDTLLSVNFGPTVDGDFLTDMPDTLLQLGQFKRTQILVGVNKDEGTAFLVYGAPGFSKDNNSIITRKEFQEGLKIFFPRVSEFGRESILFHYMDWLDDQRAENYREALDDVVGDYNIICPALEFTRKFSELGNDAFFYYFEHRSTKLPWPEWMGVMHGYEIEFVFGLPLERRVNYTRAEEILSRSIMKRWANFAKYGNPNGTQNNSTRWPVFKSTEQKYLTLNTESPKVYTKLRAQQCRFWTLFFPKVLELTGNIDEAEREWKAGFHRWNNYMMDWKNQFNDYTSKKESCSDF
T2 sequence (O42275 24-633): as the sequence (O42275 24-633) above
Chain of eqBuChE (P81908 whole entry): as the sequence (P81908 whole entry) above

## Cc1ccc(O)c(Nc2nc(Nc3cc(C)ccc3O)c3ccccc3n2)c1 [Compound 6j, 2'-(quinazoline-2,4-diylbis(azanediyl))bis(4-methylphenol)]
[1]
  IC50: > 50 µM
  inhibition at 50 µM: 45.2 ± 2.91%
[2]
  Selectivity index to BuChE (SI): > 13.6
  IC50: 3.65 µM
  inhibition at 50 µM: 91.6 ± 3.26%
DPPH antioxidant assay
  EC50: 23.2 µM

## Oc1ccccc1Nc1nc(Nc2ccccc2O)c2ccccc2n1 [Compound 6b, 2,2′-(quinazoline-2,4-diylbis(azanediyl))diphenol]
[1]
  IC50: > 50 µM
  inhibition at 50 µM: 8.7 ± 1.15%
[2]
  IC50: 37.2 µM
  inhibition at 50 µM: 52.3 ± 2.17%
DPPH antioxidant assay
  EC50: 26.1 µM

## COc1ccc(Nc2nc(Nc3ccc(OC)cc3)c3ccccc3n2)cc1 [Compound 6g, N^2, N^4-bis(4-methoxyphenyl)quinazoline-2,4-diamine]
[1]
  IC50: > 50 µM
  inhibition at 50 µM: 11 ± 4.64%
[2]
  IC50: 48.3 µM
  inhibition at 50 µM: 51.5 ± 3.25%
DPPH antioxidant assay
  EC50: > 400 µM

## Nc1ccccc1Nc1nc(Nc2ccccc2N)c2ccccc2n1 [Compound 6c, N^1, N^1′-(quinazoline-2,4-diyl)bis(benzene-1,2-diamine)]
[1]
  IC50: > 50 µM
  inhibition at 50 µM: 6.15 ± 3.15%
[2]
  IC50: 26.9 µM
  inhibition at 50 µM: 64.1 ± 2.32%
DPPH antioxidant assay
  EC50: 28.4 µM

## O=c1c(O)c(-c2ccc(O)c(O)c2)oc2cc(O)cc(O)c12 [Quercetin, quercetin, reference compound]
DPPH antioxidant assay
  EC50: 8.9 µM

## Cc1ccc(Nc2nc(Nc3ccc(C)cc3)c3ccccc3n2)cc1 [Compound 6f, N^2, N^4-di-p-tolylquinazoline-2,4-diamine]
[1]
  IC50: > 50 µM
  inhibition at 50 µM: 40.3 ± 3.55%
[2]
  eqBuChE inhibitory activity, times more active than donepezil: 20 times
  Selectivity index to BuChE (SI): > 96
  IC50: 0.52 µM
  inhibition at 50 µM: 96.7 ± 2.57%
eqBuChE
  Inhibition type of eqBuChE: mixed-type inhibition
DPPH antioxidant assay
  EC50: > 400 µM

## Brc1ccccc1Nc1nc(Nc2ccccc2Br)c2ccccc2n1 [Compound 6a, N^2, N^4-bis(2-bromophenyl) quinazoline-2,4-diamine]
[1]
  IC50: > 50 µM
  inhibition at 50 µM: 12.4 ± 2.74%
[2]
  IC50: > 50 µM
  inhibition at 50 µM: 30.6 ± 2.15%
DPPH antioxidant assay
  EC50: > 400 µM

## COc1ccc(Nc2nc(Nc3ccc(OC)cc3OC)c3ccccc3n2)c(OC)c1 [Compound 6h, N^2, N^4-bis(2,4-dimethoxyphenyl)quinazoline-2,4-diamine]
[1]
  IC50: 47.6 µM
  inhibition at 50 µM: 52.4 ± 2.33%
[2]
  Selectivity index to BuChE (SI): 7.1
  IC50: 6.74 µM
  inhibition at 50 µM: 87.5 ± 3.08%
eelAChE
  Inhibition type of eelAChE: mixed-type inhibition
DPPH antioxidant assay
  EC50: > 400 µM

## FC(F)(F)c1cccc(Nc2nc(Nc3cccc(C(F)(F)F)c3)c3ccccc3n2)c1 [Compound 6e, N^2, N^4-bis(3-(trifluoromethyl)phenyl)quinazoline-2,4-diamine]
[1]
  IC50: > 50 µM
  inhibition at 50 µM: 16.5 ± 3.05%
[2]
  IC50: 43.5 µM
  inhibition at 50 µM: 58.8 ± 1.37%
DPPH antioxidant assay
  EC50: > 400 µM

## Brc1cccc(Nc2nc(Nc3cccc(Br)c3)c3ccccc3n2)c1 [Compound 6d, N^2,N^4-bis(3-bromophenyl)quinazoline-2,4-diamine]
[1]
  IC50: > 50 µM
  inhibition at 50 µM: 23.5 ± 1.03%
[2]
  IC50: 41.7 µM
  inhibition at 50 µM: 56.1 ± 4.17%
DPPH antioxidant assay
  EC50: > 400 µM

## COc1ccc(Cl)cc1Nc1nc(Nc2cc(Cl)ccc2OC)c2ccccc2n1 [Compound 6i, N^2, N^4-bis(5-chloro-2-methoxyphenyl)quinazoline-2,4-diamine]
[1]
  IC50: > 50 µM
  inhibition at 50 µM: 13.7 ± 1.94%
[2]
  IC50: > 50 µM
  inhibition at 50 µM: 26.6 ± 3.19%
DPPH antioxidant assay
  EC50: > 400 µM
